Inconclusive results and toxic doses are left out. How the source made its calls: active means survival T/C of 150% or more; inactive means T/C below 125% in these data.
Tested on: CD2F1 mice, L1210 leukemia ip, survival T/C
Assay: NCI In Vivo Anticancer Drug Screen. Data for tumor model L1210 Leukemia (intraperitoneal) in CD2F1 (CDF1) mice
Details: higher = longer survival
Procedure, shortened: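 Activity against a transplanted murine tumor was judged by comparing the compound group with a vehicle group. The outcome in the treated animals was divided by that in the controls.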

[1] = endpoint: mean survival time, dose: 50.0 mg/kg/injection, schedule: Q01DX009 (ip), vehicle: Klucel (hydroxypropylcellulose) (HPC)
[2] = endpoint: mean survival time, dose: 100.0 mg/kg/injection, schedule: Q01DX009 (ip), vehicle: Klucel (hydroxypropylcellulose) (HPC)
[3] = endpoint: mean survival time, dose: 200.0 mg/kg/injection, schedule: Q01DX009 (ip), vehicle: Klucel (hydroxypropylcellulose) (HPC)
[4] = endpoint: mean survival time, dose: 100.0 mg/kg/injection, schedule: Q01DX009 (ip), vehicle: saline with Tween-80
[5] = endpoint: mean survival time, dose: 100.0 mg/kg/injection, schedule: Q04DX003 (ip), vehicle: saline with Tween-80
[6] = endpoint: mean survival time, dose: 200.0 mg/kg/injection, schedule: Q01DX009 (ip), vehicle: saline with Tween-80
[7] = endpoint: mean survival time, dose: 200.0 mg/kg/injection, schedule: Q04DX003 (ip), vehicle: saline with Tween-80
[8] = endpoint: mean survival time, dose: 400.0 mg/kg/injection, schedule: Q01DX009 (ip), vehicle: saline with Tween-80
[9] = endpoint: mean survival time, dose: 400.0 mg/kg/injection, schedule: Q04DX003 (ip), vehicle: saline with Tween-80
[10] = endpoint: mean survival time, dose: 100.0 mg/kg/injection, schedule: Q01DX001 (ip), vehicle: saline with Tween-80

Measured: T/C

CC(=O)c1cc(O)ccc1O
inactive: endpoint: mean survival time, dose: 100.0 mg/kg/injection, schedule: Q01DX001 (ip), vehicle: saline 101 % of control | endpoint: mean survival time, dose: 200.0 mg/kg/injection, schedule: Q01DX001 (ip), vehicle: saline 98 % of control | endpoint: mean survival time, dose: 400.0 mg/kg/injection, schedule: Q01DX001 (ip), vehicle: saline 98 % of control

CCC(C)(O)C(C)=O (configuration not stated)
inactive: endpoint: mean survival time, dose: 12.5 mg/kg/injection, schedule: Q01DX009 (ip), vehicle: Klucel (hydroxypropylcellulose) (HPC) 98 % of control | endpoint: mean survival time, dose: 25.0 mg/kg/injection, schedule: Q01DX009 (ip), vehicle: Klucel (hydroxypropylcellulose) (HPC) 92 % of control | [1] 98 % of control | [2] 98 % of control | [3] 105 % of control

COc1cccc(C(=O)O)c1C(=O)O
inactive: endpoint: mean survival time, dose: 12.5 mg/kg/injection, schedule: Q01DX005 (ip), vehicle: other 92 % of control | endpoint: mean survival time, dose: 25.0 mg/kg/injection, schedule: Q01DX005 (ip), vehicle: other 92 % of control | endpoint: mean survival time, dose: 50.0 mg/kg/injection, schedule: Q01DX005 (ip), vehicle: other 89 % of control | endpoint: mean survival time, dose: 100.0 mg/kg/injection, schedule: Q01DX005 (ip), vehicle: other 98 % of control | endpoint: mean survival time, dose: 200.0 mg/kg/injection, schedule: Q01DX005 (ip), vehicle: other 101 % of control | endpoint: mean survival time, dose: 400.0 mg/kg/injection, schedule: Q01DX005 (ip), vehicle: other 96 % of control

CN(C)c1ccc(CN2CCCN(Cc3ccc(N(C)C)cc3)C2c2ccncc2)cc1
inactive: [4] 94 % of control | [5] 104 % of control | [6] 95 % of control | [7] 103 % of control | [8] 95 % of control | [9] 103 % of control

CC(C)(CNC1CCCCC1)OC(=O)c1ccccc1
inactive: endpoint: mean survival time, dose: 75.0 mg/kg/injection, schedule: Q01DX001 (ip), vehicle: saline 105 % of control | endpoint: mean survival time, dose: 150.0 mg/kg/injection, schedule: Q01DX001 (ip), vehicle: saline 100 % of control

CCn1cnccc1=O
inactive: endpoint: mean survival time, dose: 100.0 mg/kg/injection, schedule: Q04DX002 (ip), vehicle: saline 92 % of control | endpoint: mean survival time, dose: 200.0 mg/kg/injection, schedule: Q04DX002 (ip), vehicle: saline 109 % of control | endpoint: mean survival time, dose: 300.0 mg/kg/injection, schedule: Q04DX002 (ip), vehicle: saline 115 % of control | endpoint: mean survival time, dose: 450.0 mg/kg/injection, schedule: Q04DX002 (ip), vehicle: saline 117 % of control

COC(=O)c1cccc(COc2ccc([N+](=O)[O-])cc2Cl)c1
inactive: [4] 98 % of control | [5] 101 % of control | [6] 96 % of control | [7] 100 % of control | [8] 95 % of control | [9] 100 % of control

COC(=O)Nc1ccc(OS(=O)(=O)N(C)C)cc1
inactive: [5] 103 % of control | [7] 98 % of control | [9] 103 % of control

O=c1nc(NCC2CCCO2)ccn1C1OC(CO)C(O)C1O (configuration not stated)
inactive: endpoint: median survival time, dose: 12.5 mg/kg/injection, schedule: Q01DX005 (ip), vehicle: water 101 % of control | endpoint: median survival time, dose: 25.0 mg/kg/injection, schedule: Q01DX005 (ip), vehicle: water 101 % of control | endpoint: median survival time, dose: 50.0 mg/kg/injection, schedule: Q01DX005 (ip), vehicle: water 101 % of control | endpoint: median survival time, dose: 100.0 mg/kg/injection, schedule: Q01DX005 (ip), vehicle: water 97 % of control | endpoint: median survival time, dose: 200.0 mg/kg/injection, schedule: Q01DX005 (ip), vehicle: water 98 % of control

CC(C)(C)OC(=O)NC(CC(N)=O)C(=O)O (configuration not stated)
inactive: endpoint: mean survival time, dose: 100.0 mg/kg/injection, schedule: Q01DX001 (ip), vehicle: saline sonified 98 % of control | endpoint: mean survival time, dose: 200.0 mg/kg/injection, schedule: Q01DX001 (ip), vehicle: saline sonified 93 % of control | endpoint: mean survival time, dose: 400.0 mg/kg/injection, schedule: Q01DX001 (ip), vehicle: saline sonified 98 % of control

CC(=O)Nc1ccc(Cc2[nH]c(=O)[nH]c(=O)c2Br)cc1[N+](=O)[O-]
inactive: [10] 95 % of control | endpoint: mean survival time, dose: 200.0 mg/kg/injection, schedule: Q01DX001 (ip), vehicle: saline with Tween-80 91 % of control | endpoint: mean survival time, dose: 400.0 mg/kg/injection, schedule: Q01DX001 (ip), vehicle: saline with Tween-80 89 % of control

CCCCCCCCCCCCCCCCOc1ccc(C(C)=O)cc1
inactive: [6] 89 % of control | [8] 96 % of control

CC1CC1Cc1ccccc1 (configuration not stated)
inactive: [10] 86 % of control

O=C(c1cccnc1)n1cc2c(n1)C1=C(CCCC1)CC2
inactive: [1] 90 % of control | [2] 105 % of control | [3] 102 % of control

CCOC(=O)N1CCc2cc(OC)c(OC)cc2C1=C(c1ccccc1)c1ccccc1
inactive: [4] 91 % of control | [5] 86 % of control | [6] 95 % of control | [8] 88 % of control | [9] 86 % of control

Reference: PubChem BioAssay AID256 (DTP/NCI, 2004)
